From patent US20060213838A1, “Elution test method and apparatus” (SHIMADZU CORPORATION, priority 2005, published 2006) come the findings set out here.

Data set [1] in a line: change with time of residual concentration of specific component A in test liquid (HPLC). Type of data set: physicochemical. To be noted: 50 mM phosphoric acid buffer solution pH6.8, 37° C., initial 0.1 mg/mL. How it is done:
The specific component A is an unstable pharmaceutical in an elution test under neutral condition and is sodium rabepranazole. The test liquid used to the elution test is a 50 mM phosphoric acid buffer solution (pH6.8, 37° C.) in order to neutralize the elution condition for the specific component A.

The nature of data set [2]: elution test of the preparation by absorbance measurement method. The class given is physicochemical. Conditions: preparation C containing impurity component B, six specimens. An excerpt:
The following describes a method for determining the specific component A alone while eliminating the influence of the impurity component B that hinders determination from the test liquid into which the specific component A and the impurity component B are eluted from the preparation C
The wavelengths to be set are 234 nm (λ1) and 287 nm (λ2) as isosbestic point wavelengths in a system including the specific component A and its decomposed matter in the preparation C. Assuming that the absorbances of the specific component A as A234nm(t) and A287nm(t) and the absorbances of the impurity component B as B234nm(t) and B287nm(t), the absorbances of the synthesis spectrum C234nm(t) and C287nm(t) will be represented as follows. C234nm(t)=A234nm(t)+B234nm(t) (3) C287nm(t)=A287nm(t)+B287nm(t) (4) Considering the spectrum of the impurity component B, the ratio of absorbance of the wavelengths of 234 nm and 287 nm is constant and independent of time (or concentration). This obtains the expression (5). B234nm(t)/B287nm(t)=k (5)
k and k′ are constants. From the absorbance measurement values at two isosbestic point wavelengths of the elution test liquid, the concentration of the specific component A alone is obtained by solving the simultaneous equation of the expression (7) and (8). […]

Structures are written as SMILES.

As for `COCCCOc1ccnc(C[S+]([O-])c2nc3ccccc3[n-]2)c1C.[Na+]` (stereo not shown) [specific component A, sodium rabepranazole], the “time for residual concentration to decrease to half the initial concentration” value in data set [1] is no more than 40 min. Further, in data set [1] (within 40 minutes), the “residual concentration of the specific component A” value is on record as 0.05 mg/mL. Moreover, the elution ratio entry is given as “around 100%” in data set [2] (double-wavelength absorbance measurement method (234 nm and 287 nm)); 140% in data set [2] (single-wavelength absorbance measurement method (234 nm)).
